Measured values taken from US11840533B2, “Pyridinone-based epigenetic modifiers and uses thereof” (THE BOARD OF TRUSTEES OF THE UNIVERSITY OF ILLINOIS, priority 2017, dated 2023).

These molecules were tested on fulvestrant-resistant MCF7:5C-FR cells (assay: Fulvestrant-resistant breast cancer cell viability (cell proliferation) assay). Conditions: 120 h, growth inhibition in fulvestrant-resistant MCF-7:CFR cells, 120 hrs.
Format: cell-based
Method: For the cell proliferation assay, the fulvestrant-resistant MCF7:5C-FR cells were seeded at about 2000 to about 2500/well in 96-well plates. The next day, compounds were add to the cells at desired serial concentrations form 3 nM to 10 uM. A final 0.1% (v/v) DMSO was used as vehicle control and 1 uM JQ1 was used as positive. The cell were grown in the normal culture condition for 120 hrs. Then the Hoechst 33342 dye were add to each well at a final concentration of 5 μg/ml, and put back to the incubator at 37 C for 90 min. The plates were scanned immediately after the incubation with Celigo (Nexcelcom Biocesnse) for the fluorescence of the nuclear using DAPI channel, and the cell number was counted thought the analysis function of the Celigo software. The normalized cell number to the vehicle control was used to represent the cell proliferation. […] N.D.=Not determined.

`Cn1ccc2ccnc(O)c21` [Compound 1, 1-methyl-1H-pyrrolo[2,3-c]pyridin-7-ol] and `Cn1cc(C(=O)c2ccccc2)c2ccnc(O)c21` [Compound 5, (7-hydroxy-1-methyl-1H-pyrrolo[2,3-c]pyridin-3-yl)(phenyl)methanone] cannot be ordered by IC50: > 5000 nM for the first, > 5000 nM for the second.

Compared with `Cn1cc(C(=O)c2cccc(-c3ccc(F)cc3)c2)c2ccnc(O)c21` [Compound 2, (4′-fluoro-[1,1′-biphenyl]-3-yl)(7-hydroxy-1-methyl-1H-pyrrolo[2,3-c]pyridin-3-yl)methanone], `O=C(c1cccc(-c2ccc(F)cc2)c1)c1cn(CCCl)c2c(O)nccc12` [Compound 7, (1-(2-chloroethyl)-7-hydroxy-1H-pyrrolo[2,3-c]pyridin-3-yl)(4′-fluoro-[1,1′-biphenyl]-3-yl)methanone] is 9.6-fold higher in IC50: 157 nM for the first, 1500 nM for the second. The first is the more potent here.

`O=C(c1cccc(-c2ccc(F)cc2)c1)c1c[nH]c2c(O)nccc12` [Compound 3, (4′-fluoro-[1,1′-biphenyl]-3-yl)(7-hydroxy-1H-pyrrolo[2,3-c]pyridin-3-yl)methanone] and `Cn1cc(C(=O)c2ccc(-c3ccc(F)cc3)cc2)c2ccnc(O)c21` [Compound 4, (4′-fluoro-[1,1′-biphenyl]-4-yl)(7-hydroxy-1-methyl-1H-pyrrolo[2,3-c]pyridin-3-yl)methanone] cannot be ordered by IC50: > 1000 nM for the first, > 5000 nM for the second.

`Cn1cc(C(=O)c2ccccc2Cl)c2ccnc(O)c21` [Compound 6, (2-chlorophenyl)(7-hydroxy-1-methyl-1H-pyrrolo[2,3-c]pyridin-3-yl)methanone] and `CNS(=O)(=O)CCc1ccc(O)cc1C(=O)c1cn(C)c2c(O)nccc12` [Compound 12, 2-(4-hydroxy-2-(7-hydroxy-1-methyl-1H-pyrrolo[2,3-c]pyridine-3-carbonyl)phenyl)-N-methylethane-1-sulfonamide] cannot be ordered by IC50: > 5000 nM for the first, > 1000 nM for the second.

Going from `Cn1cc(C(OCc2ccc(F)cc2)c2cccc(-c3ccc(F)cc3)c2)c2ccnc(O)c21` (stereo not shown) [Compound 9, 3-((4′-fluoro-[1,1′-biphenyl]-3-yl)((4-fluorobenzyl)oxy)methyl)-1-methyl-1H-pyrrolo[2,3-c]pyridin-7-ol] to `Cn1cc(C(Oc2ccc(F)cc2)c2cccc(-c3ccc(F)cc3)c2)c2ccnc(O)c21` (stereo not shown) [Compound 10, 3-((4′-fluoro-[1,1′-biphenyl]-3-yl)(4-fluorophenoxy)methyl)-1-methyl-1H-pyrrolo[2,3-c]pyridin-7-ol], the IC50 falls from > 5000 nM to 300 nM.

`Cn1cc(C(OCC2CCC2)c2cccc(-c3ccc(F)cc3)c2)c2ccnc(O)c21` (stereo not shown) [Compound 11, 3-((cyclobutylmethoxy)(4′-fluoro-[1,1′-biphenyl]-3-yl)methyl)-1-methyl-1H-pyrrolo[2,3-c]pyridin-7-ol] and `Cn1cc(-c2c[nH]c3ccc(-c4ccc(F)cc4)cc23)c2ccnc(O)c21` [Compound 17, 3-(5-(4-fluorophenyl)-1H-indol-3-yl)-1-methyl-1H-pyrrolo[2,3-c]pyridin-7-ol] cannot be ordered by IC50: > 5000 nM for the first, > 1000 nM for the second.

`CNS(=O)(=O)CCc1ccc(OCc2ccc(F)cc2)cc1C(=O)c1cn(C)c2c(O)nccc12` [Compound 13, 2-(4-((4-fluorobenzyl)oxy)-2-(7-hydroxy-1-methyl-1H-pyrrolo[2,3-c]pyridine-3-carbonyl)phenyl)-N-methylethane-1-sulfonamide] and `CNS(=O)(=O)CCc1ccc(OC)cc1C(=O)c1cn(C)c2c(O)nccc12` [Compound 15, 2-(2-(7-hydroxy-1-methyl-1H-pyrrolo[2,3-c]pyridine-3-carbonyl)-4-methoxyphenyl)-N-methylethane-1-sulfonamide] cannot be ordered by IC50: > 1000 nM for the first, > 1000 nM for the second.

First: CNS(=O)(=O)CCc1ccc(OCC2CCC2)cc1C(=O)c1cn(C)c2c(O)nccc12 [Compound 14, 2-(4-(cyclobutylmethoxy)-2-(7-hydroxy-1-methyl-1H-pyrrolo[2,3-c]pyridine-3-carbonyl)phenyl)-N-methylethane-1-sulfonamide]
Second: CCS(=O)(=O)Nc1cc(-c2cn(C)c3c(O)nccc23)cc2c1ccn2Cc1ccc(F)cc1C [Compound 25, N-(1-(4-fluoro-2-methylbenzyl)-6-(7-hydroxy-1-methyl-1H-pyrrolo[2,3-c]pyridin-3-yl)-1H-indol-4-yl)ethanesulfonamide]
The IC50 of the first is higher: > 1000 nM for the first, < 200 nM for the second.

`Cn1cc(-c2cn(CC(N)=O)c3ccc(-c4ccc(F)cc4)cc23)c2ccnc(O)c21` [Compound 16, 2-(5-(4-fluorophenyl)-3-(7-hydroxy-1-methyl-1H-pyrrolo[2,3-c]pyridin-3-yl)-1H-indol-1-yl)acetamide] and `Cn1cc(-c2cn(CC(N)=O)c3ccc(Br)cc23)c2ccnc(O)c21` [Compound 18, 2-(5-bromo-3-(7-hydroxy-1-methyl-1H-pyrrolo[2,3-c]pyridin-3-yl)-1H-indol-1-yl)acetamide] cannot be ordered by IC50: > 1000 nM for the first, > 1000 nM for the second.

`Cn1cc(-c2c[nH]c3ccc(Br)cc23)c2ccnc(O)c21` [Compound 19, 3-(5-bromo-1H-indol-3-yl)-1-methyl-1H-pyrrolo[2,3-c]pyridin-7-ol] and `Cn1cc(-c2cc(NS(C)(=O)=O)cc3ccn(Cc4ccc(F)cc4)c23)c2ccnc(O)c21` [Compound 20, N-(1-(4-fluorobenzyl)-7-(7-hydroxy-1-methyl-1H-pyrrolo[2,3-c]pyridin-3-yl)-1H-indol-5-yl)methanesulfonamide] cannot be ordered by IC50: > 1000 nM for the first, 1990 nM for the second.

Going from `Cc1cc(F)ccc1Cn1ccc2cc(NS(C)(=O)=O)cc(-c3cn(C)c4c(O)nccc34)c21` [Compound 21, N-(1-(4-fluoro-2-methylbenzyl)-7-(7-hydroxy-1-methyl-1H-pyrrolo[2,3-c]pyridin-3-yl)-1H-indol-5-yl)methanesulfonamide] to `Cc1cc(F)cc(C)c1Cn1ccc2cc(NS(C)(=O)=O)cc(-c3cn(C)c4c(O)nccc34)c21` [Compound 22, N-(1-(4-fluoro-2,6-dimethylbenzyl)-7-(7-hydroxy-1-methyl-1H-pyrrolo[2,3-c]pyridin-3-yl)-1H-indol-5-yl)methanesulfonamide], the IC50 falls from 3500 nM to 526 nM (6.7-fold).

`CCS(=O)(=O)Nc1cc(-c2cn(C)c3c(O)nccc23)cc2c1ccn2Cc1ccc(F)cc1` [Compound 24, N-(1-(4-fluorobenzyl)-6-(7-hydroxy-1-methyl-1H-pyrrolo[2,3-c]pyridin-3-yl)-1H-indol-4-yl)ethanesulfonamide] and `CCS(=O)(=O)Nc1cc(-c2cn(C)c3c(O)nccc23)cc2c1ccn2Cc1ccc(F)cc1Cl` [Compound 26, N-(1-(2-chloro-4-fluorobenzyl)-6-(7-hydroxy-1-methyl-1H-pyrrolo[2,3-c]pyridin-3-yl)-1H-indol-4-yl)ethanesulfonamide] cannot be ordered by IC50: < 200 nM for the first, < 200 nM for the second.

`CCS(=O)(=O)Nc1cc(-c2cn(C)c3c(O)nccc23)cc2c1ccn2Cc1c(C)cc(F)cc1C` [Compound 27, N-(1-(4-fluoro-2,6-dimethylbenzyl)-6-(7-hydroxy-1-methyl-1H-pyrrolo[2,3-c]pyridin-3-yl)-1H-indol-4-yl)ethanesulfonamide] and `CCS(=O)(=O)Nc1cc(-c2cn(C)c3c(O)nccc23)cc2c1cnn2Cc1c(C)cc(F)cc1C` [Compound 33, N-(1-(4-fluoro-2,6-dimethylbenzyl)-6-(7-hydroxy-1-methyl-1H-pyrrolo[2,3-c]pyridin-3-yl)-1H-indazol-4-yl)ethanesulfonamide] cannot be ordered by IC50: < 1000 nM for the first, < 1000 nM for the second.

`CCS(=O)(=O)Nc1cc(-c2cn(C)c3c(O)nccc23)cc2c1ccn2Cc1c(C)cccc1C` [Compound 28, N-(1-(2,6-dimethylbenzyl)-6-(7-hydroxy-1-methyl-1H-pyrrolo[2,3-c]pyridin-3-yl)-1H-indol-4-yl)ethanesulfonamide] and `CCS(=O)(=O)Nc1cc(-c2cn(C)c3c(O)nccc23)cc2c1ccn2Cc1ccc(F)cc1F` [Compound 29, N-(1-(2,4-difluorobenzyl)-6-(7-hydroxy-1-methyl-1H-pyrrolo[2,3-c]pyridin-3-yl)-1H-indol-4-yl)ethanesulfonamide] cannot be ordered by IC50: < 1000 nM for the first, < 500 nM for the second.

`CCS(=O)(=O)Nc1cc(-c2cn(C)c3c(O)nccc23)cc2c1cnn2Cc1ccc(F)cc1C` [Compound 32, N-(1-(4-fluoro-2-methylbenzyl)-6-(7-hydroxy-1-methyl-1H-pyrrolo[2,3-c]pyridin-3-yl)-1H-indazol-4-yl)ethanesulfonamide] and `CCS(=O)(=O)Nc1cc(-c2cn(C)c3c(O)nccc23)cc2c1cnn2Cc1ccc(F)cc1F` [Compound 34, N-(1-(2,4-difluorobenzyl)-6-(7-hydroxy-1-methyl-1H-pyrrolo[2,3-c]pyridin-3-yl)-1H-indazol-4-yl)ethanesulfonamide] cannot be ordered by IC50: < 200 nM for the first, < 500 nM for the second.

`CCS(=O)(=O)Nc1cc(-c2cn(C)c3c(O)nccc23)cc2c1cnn2Cc1ccc(F)cc1Cl` [Compound 35, N-(1-(2-chloro-4-fluorobenzyl)-6-(7-hydroxy-1-methyl-1H-pyrrolo[2,3-c]pyridin-3-yl)-1H-indazol-4-yl)ethanesulfonamide] and `CCS(=O)(=O)Nc1cc(-c2cn(C)c3c(O)nccc23)cc2c1cnn2Cc1cccc(Cl)c1Cl` [Compound 36, N-(1-(2,3-dichlorobenzyl)-6-(7-hydroxy-1-methyl-1H-pyrrolo[2,3-c]pyridin-3-yl)-1H-indazol-4-yl)ethanesulfonamide] cannot be ordered by IC50: < 500 nM for the first, < 1000 nM for the second.

In the case of `CCS(=O)(=O)Nc1cc(-c2cn(C)c3c(O)nccc23)cc2c1ncn2Cc1ccc(F)cc1` [Compound 37, N-(1-(4-fluorobenzyl)-6-(7-hydroxy-1-methyl-1H-pyrrolo[2,3-c]pyridin-3-yl)-1H-benzo[d]imidazol-4-yl)ethanesulfonamide], the IC50 is reported as < 1000 nM.

Same assay, conditions: growth inhibition in fulvestrant-resistant MCF-7:CFR cells, 120 hrs

For `O=C(c1cccc(-c2ccc(F)cc2)c1)c1cn(CCCCl)c2c(O)nccc12` [Compound 8, (1-(3-chloropropyl)-7-hydroxy-1H-pyrrolo[2,3-c]pyridin-3-yl)(4′-fluoro-[1,1′-biphenyl]-3-yl)methanone], the IC50 was > 5000 nM.
